Measured values from patent US9475798B2, “Azetidine estrogen receptor modulators and uses thereof” (Genentech, Inc., priority 2013, dated 2016).

Legend:
[1] = test system: tamoxifen resistant MCF-7 tumors; experiment: Breast Cancer Model; Xenograft Assay (MCF-7 Derivative); format: in vivo; settings: female nu/nu mice
Method: Female nu/nu mice (with supplemental 17-β Estradiol pellets; 0.72 mg; 60 day slow release) bearing MCF-7 tumors (mean tumor volume 200 mm^3) were treated with Tamoxifen (citrate) by oral gavage. Tumor volume (length×width^2/2) and body weight were monitored twice weekly. Following a significant anti-tumor response in which tumor volume remained static, evident tumor growth was first observed at approximately 100 days of treatment. At 120 days of treatment, tamoxifen dose was increased. Rapidly growing tumors were deemed tamoxifen resistant and selected for in vivo passage into new host animals. Tumor Fragments (˜100 mm^3/animal) from the tamoxifen resistant tumors were subcutaneously implanted into the right flank of female nu/nu mice (with 17-β Estradiol pellets (0.72 mg; 60 day slow release)). Passaged tumors were maintained under constant Tamoxifen selection, and Tumor volume (length×width^2/2) was monitored weekly. When tumor volume reached ˜150-250 mm^3, animals were randomized into treatment groups (mean tumor volume 200 mm^3) and tamoxifen treatment was terminated (except for a tamoxifen control arm). Animals were treated with Vehicle or Compound daily for 4 weeks. Tumor volume and body weight were monitored twice weekly for the duration of the study. At the conclusion of the treatment period; plasma and tumor samples were taken for pharmacokinetic and pharmacodynamic analyses, respectively.

MCF-7 cells = experiment: Breast Cancer Cell Viability Assay (MCF7, CellTiter-Glo); settings: for MCF7 Viability Assay: % Viability relative to Fulvestrant: 5 days, 100-{100*[(100-% viability of Example)/(100-% viability of Fulvestrant)]}; for IC50: read-out: MCF7 Viability Assay IC50, 5 days' compound exposure;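 on all read-outs here: CellTiter-Glo luminescence read-out, background from cell-free medium subtracted, viability expressed against untreated cells, ten-point 1:5 compound dilution series spanning 10 to 0.000005 µM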

SMILES | Number of Tumors Smaller at t = 27 days than at Start of study (t = 0 days) ([1]; 10mpk oral dose each day) | Number of Tumors Smaller at t = 27 days than at Start of study (t = 0 days) ([1]; 30mpk oral dose each day) | Number of Tumors Smaller at t = 27 days than at Start of study (t = 0 days) ([1]; 100mpk oral dose each day) | MCF7 Viability Assay: % Viability relative to Fulvestrant (MCF-7 cells) [%] | IC50 (MCF-7 cells) [nM]
CC1=C(c2cccc(O)c2)[C@H](c2ccc(OC[C@H](C)N3CC[C@@H](C)C3)cc2)Oc2ccc(O)cc21 [(S)-3-(3-Hydroxyphenyl)-4-methyl-2-(4-((S)-2-((R)-3-methylpyrrolidin-1-yl)propoxy)phenyl)-2H-chromen-6-ol, reference compound] | 0/8 | 1/8 | 1/8 | 8 | 0.13
CC1=C(c2ccc(F)cc2)[C@H](c2ccc(OCCN3CC(CF)C3)cc2)Oc2ccc(O)cc21 (single isomer, unassigned) [Example 3] | 2/8 | 3/8 | 5/8 | 8 | 0.17
